In patent publication US20210145771A1, “N-(3-(2-(4-CHLOROPHENOXY)ACETAMIDO)BICYCLO[1.1.1] PENTAN-1-YL)-2-CYCLOBUTANE-1- CARBOXAMIDE DERIVATIVES AND RELATED COMPOUNDS AS ATF4 INHIBITORS FOR TREATING CANCER AND OTHER DISEASES” (GlaxoSmithKline Intellectual Property Development Limited, priority 2017, published 2021) one finds IC50 data, which are given here for four compounds.

pIC50: −log10 of the molar value. Structures can show the parent of a compound that is named as a salt.

The test system of the test is ATF4 pathway. The test can be described thus: ATF4 Cell Based Assay (ATF4 reporter assay, NanoLuc luciferase). As to conditions: SH-SY5Y-ATF4-NanoLuc cells challenged with Thapsigargin for 14-18 hours; average of two or more experimental runs; read-out: average ATF4 pathway inhibitory activity (IC50). The text has this: The ATF4 reporter assay measures the effect of Thapsigargin induced cellular stress on ATF4 expression. For this reporter assay, a stable cell line was created by transfecting SH-SY5Y cells with a plasmid containing the NanoLuc® luciferase gene fused to the 5′-UTR of ATF4, under the control of the CMV promoter. The ATF4 5′-UTR contains two open reading frames which mediate the cellular stress-dependent translation of the reporter gene. Clones stably expressing the reporter construct were isolated and selected based on the luminescence response to thapsigargin and inhibition of this signal by test compounds. Briefly, SH-SY5Y-ATF4-NanoLuc cells were challenged with Thapsigargin for 14-18 hours to determine the stress effect with or without test compounds.
Cells were propagated in growth media consisting of 90% DMEM F12 (InVitrogen #11320-033), 10% Fetal Bovine Serum (Gibco #10438-026), 5 mM Glutamax (Gibco #35050-061), 5 mM Hepes, (Gibco #15630-080), and 0.5 mg/ml Geneticin (Gibco #10131-027). Cells were prepared for the assay by removing all media from cells, washing the plated cells with phosphate buffered saline, and detached by adding a solution comprised of 10% Tryple express solution (InVitrogen12604-021) and 90% enzyme-free cell dissociation buffer HANKS base (Gibco 13150-016). The trypsin was deactivated by adding assay media comprised of 90% phenol-red free DMEM F12 (InVitrogen, 11039), 10% Fetal Bovine Serum (Gibco #10438-026), (5 mM Glutamax (Gibco #35050-061), 5 mM Hepes, (Gibco #15630-080), and 0.5 mg/ml Geneticin (Gibco #10131-027). Suspended cells were spun down at 300 g for 5 min, the supernatant was removed and the cell pellet was suspended in warm media (30-37° C.) comprised as above but without 10% Fetal Bovine Serum to a concentration of 1e6 cells/ml.
Assay plates were prepared by adding 250 nL of compound stock solution in 100% DMSO to each well, followed by dispensing 20 microliters/well cell suspension to deliver 15-20 k cell/well. Cells were incubated for 1 hour at 37° C. […]
The measurement of luciferase produced by the ATF4 constructs was measured as follows. Aliquots of the Nano-Glo reagent (Nano-Glo® Luciferase Assay Substrate, Promega, N113, Nano-Glo® Luciferase Assay Buffer, Promega, N112 (parts of Nano-Glo® Luciferase Assay System, N1150) were brought to room temperature, the substrate and buffer were mixed according to manufacturer's instructions. The cell plates were equilibrated to room temperature. 25 microliters/well of the mixed Nano-Glo reagent were dispensed into assay wells and pulse spun to settle contents and the plate was sealed with film. The plates were incubated at room temperature for 1 hour before detecting luminescence on an EnVision® plate reader.
The pIC50 is −log10 of the IC50, conventionally taken in molar units. Take `O=C(COc1ccc(Cl)cc1)NC12CC(NC(=O)C3CCCO3)(C1)C2` (stereo not shown) [Example 32, N-(3-(2-(4-chlorophenoxy)acetamido)bicyclo[1.1.1]pentan-1-yl)tetrahydrofuranyl-2-carboxamide]: the pIC50 is 5.32.

For the compound `O=C(COc1ccc(Cl)cc1)NC12CC(NC(=O)C3CCC3)(C1)C2` [Example 34, N-(3-(2-(4-chlorophenoxy)acetamido)bicyclo[1.1.1]pentan-1-yl)cyclobutanecarboxamide], the pIC50 was 5.49.

On to `Cc1ccc(OCC(=O)NC23CC(NC(=O)COC4(C)CC4)(C2)C3)cc1` [Example 20, 2-(1-methylcyclopropoxy)-N-(3-(2-(p-tolyloxy)acetamido)bicyclo[1.1.1]pentan-1-yl)acetamide], for which the pIC50 was 5.20.

As to `O=C(COc1ccc(Cl)cc1)NC12CC(NC(=O)C3CCCN3)(C1)C2` (stereo not shown) [Example 53, N-(3-(2-(4-chlorophenoxy)acetamido)bicyclo[1.1.1]pentan-1-yl)pyrrolidinyl-2-carboxamide hydrochloride], the pIC50 was 5.47.
